According to US20080293647A1, “Combined Use Of Vitamin D Derivatives And Anti-Proliferative Agents For Treating Bladder Cancer” (priority 2004, published 2008):
Several values for one entry are separate records, joined by “and”; a condition that tells them apart may be missing. Equal values may be shown once. Read-outs that look alike come from different tables or passages of the source. Blank lines part the entries; values can stand above or below the molecule they belong to.

Tests used:
T24 = assay: Inhibition of cell proliferation, T24 human bladder cancer cells (CyQuant); type: cell-based; conditions: read-out: Bladder Cancer Cell Lines IC50 (μM) T24
Description: (§1) After an additional 96-h culture, the medium was removed and the plates frozen at −80° C. Cell proliferation was evaluated using CyQuant cell proliferation assay kit from Molecular Probes (Eugene, Oreg.).

RT112 = assay: Inhibition of cell proliferation, RT112 human bladder cancer cells (CyQuant); type: cell-based; conditions: read-out: Bladder Cancer Cell Lines IC50 (μM) RT112
Description: as §1

RT4 = assay: Inhibition of cell proliferation, RT4 human bladder cancer cells (CyQuant); type: cell-based; conditions: read-out: Bladder Cancer Cell Lines IC50 (μM) RT4
Description: as §1

[1] = system: human bladder cancer cell lines; assay: Combination of calcitriol with chemotherapeutic agents, bladder cancer cell line proliferation, combination index method; type: cell-based; conditions: agent combined with calcitriol; combination index method (CalcuSyn)
Description: Proliferation was measured after an additional 96 h using CyQuant cell proliferation assay kit. Drug interactions (as shown in FIG. 1) were evaluated by the median-effect/isobologram method using CalcuSyn software (Biosoft, Cambridge, UK). Combination Indices (CI) were calculated using the non-constant ratio combination design, determining synergism or antagonism for each data point.

[2] = Stability/compatibility of epirubicin and calcitriol solution for intravesical instillation (HPLC-UV); type: physicochemical
Description: Approximately 12 mg of freeze-dried Farimorubicina® powder (approx. 2 mg of epirubicin) were dissolved in water to produce a concentrated stock solution. After vortexing, the concentrated stock was diluted 1:2 using a isotonic saline containing Tween 20 at 0.1% (w/v) to provide Sample B. After further vortexing, Sample B was stored at 4° C. until use. […] The solution was mixed and stored at −20° C. until use. 100 μl of the concentrated stock solution was then taken and diluted with 900 μl of isotonic saline containing Tween 20 0.1% (w/v). After shaking the sample was stored at 4° C. until use. […] Following mixing by vortexing, the sample was stored at 5° C. and analysed using HPLC chromatography after preparation (t=0) and after 2.5 hr (t=150 min). [table]

24-hydroxylase (CYP24) = assay: Expression of 24-hydroxylase (CYP24) in human bladder cancer cell lines, Real Time RT-PCR; type: cell-based; conditions: 100 nM, 2 h
[3] = Homo sapiens, T-24, 96-h culture
[4] = Homo sapiens, RT-112, 96 h, 96-h culture
[5] = Homo sapiens, RT-4, 96 h, 96-h culture
[6] = combination (calcitriol 50 μg/ml + epirubicin 1 mg/ml), t = 0 min
[7] = combination (calcitriol 50 μg/ml + epirubicin 1 mg/ml), t = 150 min, stored at 5° C.
[8] = single-component solution (epirubicin 1 mg/ml; calcitriol 100 μg/ml), HPLC peak area

- IC50 (T24; [3]): 28 µM
- IC50 (RT112; [4]): 12 µM
- IC50 (RT4; [5]): 16 µM
Molecule: C=C1/C(=C\C=C2/CCC[C@]3(C)C([C@@H](C)C/C=C/C(O)(CC)CC)=CC[C@@H]23)C[C@@H](O)C[C@@H]1F [1-alpha-fluoro-25-hydroxy-16,23E-diene-26,27-bishomo-20-epi-cholecalciferol]

- IC50 (RT112; [4]): 14.5 µM
- IC50 (RT4; [5]): 4.6 µM
Molecule: C[C@]12CCC/C(=C\C=C3\CC(O)C[C@H](O)C3)C1CC=C2C1(C/C=C/C(O)(C(F)(F)F)C(F)(F)F)CC1 (stereo partly drawn) [1α,25-hydroxy-16-ene-20-cyclopropyl-23,24-E-ene-26,27-hexafluoro-19-nor-cholecalciferol]

- IC50 (RT112; [4]): > 30 µM
- IC50 (RT4; [5]): 9.9 µM
Molecule: CC(C)(O)CCCC1(C2=CCC3/C(=C/C=C4/CC(O)C[C@H](O)C4)CCC[C@]23C)CC1 (stereo partly drawn) [1α,25-Dihydroxy-16-ene-20-cyclopropyl-19-nor-cholecalciferol]

- IC50 (RT112; [4]): 13.8 µM
- IC50 (RT4; [5]): 1.7 µM
Molecule: C=C1/C(=C\C=C2/CCC[C@]3(C)C(C4(CC#CC(O)(C(F)(F)F)C(F)(F)F)CC4)=CCC23)CC(O)C[C@@H]1O (stereo partly drawn) [1,25-Dihydroxy-16-ene-20-cyclopropyl-23,24-yne-26,27 hexafluoro-cholecalciferol]

- IC50 (RT112; [4]): 10.6 µM
- IC50 (RT4; [5]): 2.3 µM
Molecule: C=C1/C(=C\C=C2/CCC[C@]3(C)C(C4(C/C=C/C(O)(C(F)(F)F)C(F)(F)F)CC4)=CCC23)CC(O)C[C@@H]1O (stereo partly drawn) [1α,25-Dihydroxy-16-ene-20-cyclopropyl-23,24-E-ene-26,27-hexafluoro cholecalciferol]

- IC50 (RT112; [4]): 27.6 µM
- IC50 (RT4; [5]): 2 µM
Molecule: C=C1/C(=C\C=C2/CCC[C@]3(C)C(C4(CCCC(C)(C)O)CC4)=CCC23)CC(O)C[C@@H]1O (stereo partly drawn) [1α,25-Dihydroxy-16-ene-20-cyclopropyl-cholecalciferol]

- IC50 (RT112; [4]): 15.5 µM
- IC50 (RT4; [5]): 3.3 µM
Molecule: C=C1/C(=C\C=C2/CCC[C@]3(C)C(C4(C/C=C\C(O)(C(F)(F)F)C(F)(F)F)CC4)=CCC23)CC(O)C[C@@H]1O (stereo partly drawn) [1α,25-Dihydroxy-16-ene-20-cyclopropyl-23,24-Z-ene-26,27-hexafluoro-cholecalciferol]

- IC50 (RT112; [4]): 22.7 µM
- IC50 (RT4; [5]): 5.2 µM
Molecule: C[C@]12CCC/C(=C\C=C3\CC(O)C[C@H](O)C3)C1CC=C2C1(CC#CC(O)(C(F)(F)F)C(F)(F)F)CC1 (stereo partly drawn) [14215-Dihydroxy-16-ene-20-cyclopropyl-23,41-yne-26,27-hexafluoro-19-nor-cholecalciferol]

- IC50 (RT112; [4]): 9.6 µM
- IC50 (RT4; [5]): 2.2 µM
Molecule: C[C@]12CCC/C(=C\C=C3\CC(O)C[C@H](O)C3)C1CC=C2C1(C/C=C\C(O)(C(F)(F)F)C(F)(F)F)CC1 (stereo partly drawn) [1α,25-Dihydroxy-16-ene-20-cyclopropyl-23,24-f-ene-2627-hexafluoro-19-nor-cholecalciferol]

The next lines start with the molecule.

Molecule: C=C1/C(=C\C=C2/CCC[C@@]3(C)C2CCC3C2(CCCC(C)(C)O)CC2)CC(OC(C)=O)C[C@@H]1OC(C)=O (stereo partly drawn) [1,3-Di-O-acetyl-1,25-dihydroxy-20-cyclopropyl-cholecalciferol]
- IC50 (T24; [3]): 52.1 µM
- IC50 (RT112; [4]): 9 µM
- IC50 (RT4; [5]): 10 µM

Molecule: COc1cccc2c1C(=O)c1c(O)c3c(c(O)c1C2=O)C[C@@](O)(C(=O)CO)C[C@@H]3O[C@H]1C[C@H](N)[C@@H](O)[C@H](C)O1 [epirubicin]
- Synergism or antagonism on bladder cancer cell proliferation in combination with calcitriol [1]: strong synergistic effect
- Area (230 nm) [2, 6]: 53425733 and 53877070
- Area (254 nm) [2, 6]: 44443024 and 44731107
- Area (230 nm) [2, 7]: 52245312 and 50817806
- Area (254 nm) [2, 7]: 43984488 and 43221785
- Area (230 nm) [2, 8]: 30443828 and 30511286 and 30555666
- Area (254 nm) [2, 8]: 23243121 and 23243599 and 23383366

Molecule: COc1cccc2c1C(=O)c1c(O)c3c(c(O)c1C2=O)C[C@@](O)(C(=O)CO)C[C@@H]3O[C@H]1C[C@H](N)[C@H](O)[C@H](C)O1 [doxorubicin]
- Synergism or antagonism on bladder cancer cell proliferation in combination with calcitriol [1]: strong synergistic effect

Molecule: CC(=O)O[C@@H]1CC(=C/C=C2\CCC[C@]3(C)C([C@H](C)CCC(=O)C(C)(C)O)=CCC23)C[C@@H](OC(C)=O)C1 (stereo partly drawn) [1,3-O-Diacetyl-1,25-Dihydroxy-16-ene-24-Keto-19-nor-Cholecalciferol]
- IC50 (T24; [3]): 31 µM
- IC50 (RT112; [4]): 6 µM
- IC50 (RT4; [5]): 17 µM

Molecule: CC(C)(O)CCC[C@@H](CC[C@@H](O)C(C)(C)O)[C@H]1CC[C@H]2/C(=C/C=C3C[C@@H](O)C[C@H](O)C3)CCC[C@]12C [1,25-Dihydroxy-21-(2R,3-dihydroxy-3-methyl-butyl)-20S-19-nor-cholecalciferol]
- IC50 (T24; [3]): 99.2 µM
- IC50 (RT112; Homo sapiens, RT-112, 96-h culture): 44 µM
- IC50 (RT4; Homo sapiens, RT-4, 96-h culture): 72 µM

Molecule: N.N.O=C([O-])C1(C(=O)[O-])CCC1.[Pt+2] [carboplatin]
- Synergism or antagonism on bladder cancer cell proliferation in combination with calcitriol [1]: does not result in any additive or synergistic effect

Molecule: C=C1/C(=C\C=C2/CCC[C@]3(C)C(C4(C/C=C\C(O)(C(F)(F)F)C(F)(F)F)CC4)=CCC23)CC(O)C[C@@H]1F (stereo partly drawn) [1α-Fluoro-25-hydroxy-16,23Z-diene-20-cyclopropyl-26,27-hexafluoro-cholecalciferol]
- IC50 (RT112; 96-h culture): 21 µM
- IC50 (RT4; 96-h culture): 3.1 µM

Molecule: N.N.[Cl][Pt][Cl] [cisplatin]
- Synergism or antagonism on bladder cancer cell proliferation in combination with calcitriol [1]: does not result in any additive or synergistic effect

Molecule: C=C1/C(=C\C=C2/CCC[C@]3(C)C(C4(CC#CC(O)(C(F)(F)F)C(F)(F)F)CC4)=CCC23)CC(O)C[C@@H]1F (stereo partly drawn) [1α-Fluoro-25-hydroxy-16-ene-20-cyclopropyl-23-yne-26,27-hexafluoro-cholecalciferol]
- IC50 (RT112; 96-h culture): 16.9 µM
- IC50 (RT4; 96-h culture): 3.6 µM

Molecule: C=C1/C(=C\C=C2/CCC[C@]3(C)C([C@H](C)CCCC(C)(C)O)CC[C@@H]23)C[C@@H](O)C[C@@H]1O (stereo partly drawn) [1,25-Dihydroxycholecalciferol]
- IC50 (RT112; 96-h culture): 28.7 µM
- IC50 (RT112; [4]): 19 µM
- IC50 (RT4; 96-h culture): 26 µM
- IC50 (RT4; [5]): 45 µM
- Expression of 24-hydroxylase (CYP24) (24-hydroxylase (CYP24)): up-regulation of CYP24
- Area (230 nm) [2, 6]: 2068192 and 1960823
- Area (254 nm) [2, 6]: 2710511 and 2589663
- Area (230 nm) [2, 7]: 2027619 and 1954501
- Area (254 nm) [2, 7]: 2674857 and 2572268
- Area (230 nm) [2, 8]: 3402919 and 3485146
- Area (254 nm) [2, 8]: 4981173 and 5116113

Molecule: C=C1/C(=C\C=C2/CCC[C@@]3(C)C2CCC3[C@@H](CCCC(C)(C)O)CCC(O)C(C)(C)O)C[C@@H](O)C[C@@H]1O (stereo partly drawn) [1,25-Dihydroxy-21(2R,3-dihydroxy-3-methyl-butyl)-20S-Cholecalciferol]
- IC50 (T24; [3]): 69.4 µM
- IC50 (RT112; [4]): 1 µM
- IC50 (RT4; [5]): 62 µM

Molecule: C=C1/C(=C\C=C2/CCC[C@]3(C)C(C4(C/C=C/C(O)(C(F)(F)F)C(F)(F)F)CC4)=CCC23)CC(O)C[C@@H]1F (stereo partly drawn) [1α-Fluoro-25-hydroxy-16,23E-diene-20-cyclopropyl-26,27-hexafluoro-cholecalciferol]
- IC50 (RT112; 96-h culture): 17 µM
- IC50 (RT4; 96-h culture): 3.6 µM

Molecule: CC(C)(O)CCC[C@@H](CCC(=O)C(C)(C)O)[C@H]1CC[C@H]2/C(=C/C=C3C[C@@H](O)C[C@H](O)C3)CCC[C@]12C [1,25-dihydroxy-20S-21(3-hydroxy-3-methyl-butyl)-24-keto-19-nor-cholecalciferol]
- IC50 (RT112; [4]): > 30 µM
- IC50 (RT4; [5]): 2.6 µM

Molecule: Nc1ccn([C@@H]2O[C@H](CO)[C@@H](O)C2(F)F)c(=O)n1 [gemcitabine]
- Synergism or antagonism on bladder cancer cell proliferation in combination with calcitriol [1]: strong antagonistic effect

Molecule: C=C1/C(=C\C=C2/CCC[C@@]3(C)C2CCC3C(CCCC(C)(C)O)CCC(O)C(C)(C)O)C[C@@H](O)C[C@@H]1O (stereo partly drawn) [1,25-Dihydroxy-21-(2R,3-dihydroxy-3-methyl-butyl)-20R-Cholecalciferol]
- IC50 (T24; [3]): 57.9 µM
- IC50 (RT112; [4]): 25 µM
- IC50 (RT4; [5]): 71 µM

Molecule: C=C1/C(=C\C=C2/CCC[C@]3(C)[C@@H]([C@@H](CCCC(C)(C)O)CCC(=O)C(C)(C)O)CC[C@@H]23)C[C@@H](O)C[C@@H]1O [1,25-dihydroxy-20S-21(3-hydroxy-3-methyl-butyl)-24-keto-cholecalciferol]
- IC50 (RT112; [4]): 25.5 µM
- IC50 (RT4; [5]): 8.3 µM

Molecule: 1,25-Dihydroxy-21-16,23Z-diene-26,27-hexafluoro-19-nor-cholecalciferol
- IC50 (T24; 96-h culture): 58.7 µM
- IC50 (RT112; 96-h culture): 24 µM
- IC50 (RT4; 96-h culture): 20 µM
